{"source": "PubChem BioAssay (NCI)", "test_in_all_cases": "NCI anticancer screen, dose series, 384-well format", "key": {"SK-MEL-28 melanoma": {"system": "SK-MEL-28 melanoma"}, "SN12C renal": {"system": "SN12C renal"}, "OVCAR-3 ovarian": {"system": "OVCAR-3 ovarian"}, "OVCAR-8 ovarian": {"system": "OVCAR-8 ovarian"}, "ACHN renal": {"system": "ACHN renal"}, "HT29 colon": {"system": "HT29 colon"}, "NCI-H522 lung": {"system": "NCI-H522 lung"}, "HOP-62 NSCLC": {"system": "HOP-62 NSCLC"}, "BT-549 breast": {"system": "BT-549 breast"}, "HL-60(TB) leukemia": {"system": "HL-60(TB) leukemia"}, "HCT-116 colon": {"system": "HCT-116 colon"}, "U251 glioblastoma": {"system": "U251 glioblastoma"}, "SNB-19 CNS": {"system": "SNB-19 CNS"}, "KM12 colon": {"system": "KM12 colon"}, "NCI-H226 lung": {"system": "NCI-H226 lung"}, "SW-620 colon": {"system": "SW-620 colon"}, "M14 melanoma": {"system": "M14 melanoma"}, "UO-31 renal": {"system": "UO-31 renal"}, "UACC-62 melanoma": {"system": "UACC-62 melanoma"}, "NCI/ADR-RES ovarian": {"system": "NCI/ADR-RES ovarian"}, "MALME-3M melanoma": {"system": "MALME-3M melanoma"}, "A549 NSCLC": {"system": "A549 NSCLC"}, "PC-3 prostate": {"system": "PC-3 prostate"}, "RXF 393 renal": {"system": "RXF 393 renal"}, "MOLT-4 leukemia": {"system": "MOLT-4 leukemia"}, "MCF7 breast": {"system": "MCF7 breast"}, "HCT-15 colon": {"system": "HCT-15 colon"}, "CCRF-CEM leukemia": {"system": "CCRF-CEM leukemia"}, "SNB-75 CNS": {"system": "SNB-75 CNS"}, "NCI-H23 lung": {"system": "NCI-H23 lung"}, "T-47D breast": {"system": "T-47D breast"}, "SK-MEL-2 melanoma": {"system": "SK-MEL-2 melanoma"}, "SF-268 CNS": {"system": "SF-268 CNS"}, "MDA-MB-468 breast": {"system": "MDA-MB-468 breast"}, "OVCAR-5 ovarian": {"system": "OVCAR-5 ovarian"}, "RPMI-8226 leukemia": {"system": "RPMI-8226 leukemia"}, "SF-539 CNS": {"system": "SF-539 CNS"}, "LOX IMVI melanoma": {"system": "LOX IMVI melanoma"}, "K-562 leukemia": {"system": "K-562 leukemia"}, "DU-145 prostate": {"system": "DU-145 prostate"}, "SK-OV-3 ovarian": {"system": "SK-OV-3 ovarian"}, "CAKI-1 renal": {"system": "CAKI-1 renal"}, "SF-295 CNS": {"system": "SF-295 CNS"}, "786-0 renal": {"system": "786-0 renal"}, "OVCAR-4 ovarian": {"system": "OVCAR-4 ovarian"}, "IGROV1 ovarian": {"system": "IGROV1 ovarian"}, "HOP-92 NSCLC": {"system": "HOP-92 NSCLC"}}, "note": "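GI50 marks 50% less growth. TGI is the concentration that stops growth completely.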"}
{"molecule": "N[C@@H](Cc1ccc(N(CCCl)CCCl)cc1)C(=O)O", "values": [{"measurement": "GI50", "setting": "SK-MEL-28 melanoma", "result": 89.7, "unit": "µM"}, {"measurement": "GI50", "setting": "SN12C renal", "result": 8.12, "unit": "µM"}, {"measurement": "GI50", "setting": "OVCAR-3 ovarian", "result": 26, "unit": "µM"}, {"measurement": "GI50", "setting": "OVCAR-8 ovarian", "result": 11.8, "unit": "µM"}, {"measurement": "GI50", "setting": "ACHN renal", "result": 19, "unit": "µM"}, {"measurement": "TGI", "setting": "ACHN renal", "result": 43.7, "unit": "µM"}, {"measurement": "GI50", "setting": "HT29 colon", "result": 47, "unit": "µM"}, {"measurement": "GI50", "setting": "NCI-H522 lung", "result": 14.4, "unit": "µM"}, {"measurement": "TGI", "setting": "NCI-H522 lung", "result": 28.1, "unit": "µM"}, {"measurement": "GI50", "setting": "HOP-62 NSCLC", "result": 11.7, "unit": "µM"}, {"measurement": "TGI", "setting": "HOP-62 NSCLC", "result": 40.1, "unit": "µM"}, {"measurement": "GI50", "setting": "BT-549 breast", "result": 16.9, "unit": "µM"}, {"measurement": "TGI", "setting": "BT-549 breast", "result": 82.1, "unit": "µM"}, {"measurement": "GI50", "setting": "HL-60(TB) leukemia", "result": 1.34, "unit": "µM"}, {"measurement": "TGI", "setting": "HL-60(TB) leukemia", "result": 2.78, "unit": "µM"}, {"measurement": "GI50", "setting": "HCT-116 colon", "result": 23.8, "unit": "µM"}, {"measurement": "GI50", "setting": "U251 glioblastoma", "result": 16.1, "unit": "µM"}, {"measurement": "GI50", "setting": "SNB-19 CNS", "result": 48.1, "unit": "µM"}, {"measurement": "GI50", "setting": "KM12 colon", "result": 70.3, "unit": "µM"}, {"measurement": "GI50", "setting": "NCI-H226 lung", "result": 87.8, "unit": "µM"}, {"measurement": "GI50", "setting": "SW-620 colon", "result": 26.8, "unit": "µM"}, {"measurement": "GI50", "setting": "M14 melanoma", "result": 20.8, "unit": "µM"}, {"measurement": "GI50", "setting": "UO-31 renal", "result": 52, "unit": "µM"}, {"measurement": "GI50", "setting": "UACC-62 melanoma", "result": 15.2, "unit": "µM"}, {"measurement": "GI50", "setting": "NCI/ADR-RES ovarian", "result": 55.3, "unit": "µM"}, {"measurement": "GI50", "setting": "MALME-3M melanoma", "result": 14, "unit": "µM"}, {"measurement": "TGI", "setting": "MALME-3M melanoma", "result": 30.7, "unit": "µM"}, {"measurement": "GI50", "setting": "A549 NSCLC", "result": 26.9, "unit": "µM"}, {"measurement": "GI50", "setting": "PC-3 prostate", "result": 80.2, "unit": "µM"}, {"measurement": "GI50", "setting": "RXF 393 renal", "result": 17.3, "unit": "µM"}, {"measurement": "TGI", "setting": "RXF 393 renal", "result": 33.3, "unit": "µM"}, {"measurement": "GI50", "setting": "MOLT-4 leukemia", "result": 1.01, "unit": "µM"}, {"measurement": "TGI", "setting": "MOLT-4 leukemia", "result": 2.2, "unit": "µM"}, {"measurement": "GI50", "setting": "MCF7 breast", "result": 9.86, "unit": "µM"}, {"measurement": "GI50", "setting": "HCT-15 colon", "result": 11.1, "unit": "µM"}, {"measurement": "GI50", "setting": "CCRF-CEM leukemia", "result": 2.38, "unit": "µM"}, {"measurement": "TGI", "setting": "CCRF-CEM leukemia", "result": 4.41, "unit": "µM"}, {"measurement": "GI50", "setting": "SNB-75 CNS", "result": 20.9, "unit": "µM"}, {"measurement": "GI50", "setting": "NCI-H23 lung", "result": 17.8, "unit": "µM"}, {"measurement": "TGI", "setting": "NCI-H23 lung", "result": 60.5, "unit": "µM"}, {"measurement": "GI50", "setting": "T-47D breast", "result": 41, "unit": "µM"}, {"measurement": "GI50", "setting": "SK-MEL-2 melanoma", "result": 63.1, "unit": "µM"}, {"measurement": "GI50", "setting": "SF-268 CNS", "result": 7.04, "unit": "µM"}, {"measurement": "TGI", "setting": "SF-268 CNS", "result": 44.9, "unit": "µM"}, {"measurement": "GI50", "setting": "MDA-MB-468 breast", "result": 4.53, "unit": "µM"}, {"measurement": "TGI", "setting": "MDA-MB-468 breast", "result": 18.7, "unit": "µM"}, {"measurement": "GI50", "setting": "OVCAR-5 ovarian", "result": 34.2, "unit": "µM"}, {"measurement": "GI50", "setting": "RPMI-8226 leukemia", "result": 7.95, "unit": "µM"}, {"measurement": "TGI", "setting": "RPMI-8226 leukemia", "result": 22.6, "unit": "µM"}, {"measurement": "GI50", "setting": "SF-539 CNS", "result": 15.4, "unit": "µM"}, {"measurement": "TGI", "setting": "SF-539 CNS", "result": 58.5, "unit": "µM"}, {"measurement": "GI50", "setting": "LOX IMVI melanoma", "result": 23.1, "unit": "µM"}, {"measurement": "GI50", "setting": "K-562 leukemia", "result": 27.8, "unit": "µM"}, {"measurement": "GI50", "setting": "DU-145 prostate", "result": 28.5, "unit": "µM"}, {"measurement": "TGI", "setting": "DU-145 prostate", "result": 90, "unit": "µM"}, {"measurement": "GI50", "setting": "SK-OV-3 ovarian", "result": 20.5, "unit": "µM"}, {"measurement": "TGI", "setting": "SK-OV-3 ovarian", "result": 96.2, "unit": "µM"}, {"measurement": "GI50", "setting": "CAKI-1 renal", "result": 13.2, "unit": "µM"}, {"measurement": "GI50", "setting": "SF-295 CNS", "result": 19.2, "unit": "µM"}, {"measurement": "TGI", "setting": "SF-295 CNS", "result": 43.1, "unit": "µM"}, {"measurement": "GI50", "setting": "786-0 renal", "result": 28.9, "unit": "µM"}, {"measurement": "GI50", "setting": "OVCAR-4 ovarian", "result": 40.7, "unit": "µM"}, {"measurement": "GI50", "setting": "IGROV1 ovarian", "result": 85.1, "unit": "µM"}, {"measurement": "GI50", "setting": "HOP-92 NSCLC", "result": 28.2, "unit": "µM"}]}
